Results from ChEMBL document CHEMBL1201862, “PubChem BioAssay data set” (2004).
The source made the active and inactive calls.

Legend:
[1] = biological target: Neurotensin receptor type 1 (Homo sapiens, UniProt P30989); type: functional;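 further: Image-based confirmatory dose-response assay measuring agonist activity at NTR1; NTR1-expressing U2OS osteosarcoma cells imaged for beta-arrestin GFP spot formation; agonist potency where compounds increase beta-arrestin recruitment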
Cytochrome P450 2C19 = Cytochrome P450 2C19 (Homo sapiens, UniProt P33261); experiment: Cytochrome panel assay with activity outcomes. Panel member name: p450-cyp2c19 Compounds with AC50 equal or less than 10 uM are considered active; type: functional; conditions: read-out: AC50
Chain of Cytochrome P450 2C19 (P33261 whole entry): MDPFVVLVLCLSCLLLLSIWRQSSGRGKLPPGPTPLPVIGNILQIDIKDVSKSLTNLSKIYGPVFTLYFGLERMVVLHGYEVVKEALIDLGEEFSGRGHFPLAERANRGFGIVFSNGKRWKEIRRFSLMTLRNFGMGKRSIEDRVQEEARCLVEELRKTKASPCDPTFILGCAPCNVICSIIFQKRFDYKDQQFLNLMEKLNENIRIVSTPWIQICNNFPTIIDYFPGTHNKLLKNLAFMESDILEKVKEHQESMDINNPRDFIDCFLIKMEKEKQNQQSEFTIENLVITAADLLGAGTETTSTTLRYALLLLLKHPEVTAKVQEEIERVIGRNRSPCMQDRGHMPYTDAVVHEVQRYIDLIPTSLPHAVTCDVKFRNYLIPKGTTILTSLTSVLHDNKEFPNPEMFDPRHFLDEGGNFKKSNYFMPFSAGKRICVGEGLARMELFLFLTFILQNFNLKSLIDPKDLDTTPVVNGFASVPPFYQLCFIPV

Cytochrome P450 1A2 = biological target: T1, Cytochrome P450 1A2 (Homo sapiens, UniProt P05177);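 further: PubChem cytochrome P450 panel assay, CYP1A2 panel member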
T1 sequence (P05177 whole entry): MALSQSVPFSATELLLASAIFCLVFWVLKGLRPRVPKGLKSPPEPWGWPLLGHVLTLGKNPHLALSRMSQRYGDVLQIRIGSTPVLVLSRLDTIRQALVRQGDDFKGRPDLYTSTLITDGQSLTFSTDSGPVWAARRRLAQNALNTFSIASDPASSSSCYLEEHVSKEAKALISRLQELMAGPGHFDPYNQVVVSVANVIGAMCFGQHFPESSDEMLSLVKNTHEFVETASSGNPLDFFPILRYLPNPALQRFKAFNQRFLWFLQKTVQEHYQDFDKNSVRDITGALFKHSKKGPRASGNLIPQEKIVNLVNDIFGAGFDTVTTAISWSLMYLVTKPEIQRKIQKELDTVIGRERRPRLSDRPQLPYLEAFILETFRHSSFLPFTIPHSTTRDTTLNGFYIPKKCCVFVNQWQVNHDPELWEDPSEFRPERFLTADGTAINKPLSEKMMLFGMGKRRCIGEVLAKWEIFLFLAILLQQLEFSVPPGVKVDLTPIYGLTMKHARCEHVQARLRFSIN

Cytochrome P450 2C9 = Cytochrome P450 2C9 (Homo sapiens, UniProt P11712)
Chain of Cytochrome P450 2C9 (P11712 whole entry): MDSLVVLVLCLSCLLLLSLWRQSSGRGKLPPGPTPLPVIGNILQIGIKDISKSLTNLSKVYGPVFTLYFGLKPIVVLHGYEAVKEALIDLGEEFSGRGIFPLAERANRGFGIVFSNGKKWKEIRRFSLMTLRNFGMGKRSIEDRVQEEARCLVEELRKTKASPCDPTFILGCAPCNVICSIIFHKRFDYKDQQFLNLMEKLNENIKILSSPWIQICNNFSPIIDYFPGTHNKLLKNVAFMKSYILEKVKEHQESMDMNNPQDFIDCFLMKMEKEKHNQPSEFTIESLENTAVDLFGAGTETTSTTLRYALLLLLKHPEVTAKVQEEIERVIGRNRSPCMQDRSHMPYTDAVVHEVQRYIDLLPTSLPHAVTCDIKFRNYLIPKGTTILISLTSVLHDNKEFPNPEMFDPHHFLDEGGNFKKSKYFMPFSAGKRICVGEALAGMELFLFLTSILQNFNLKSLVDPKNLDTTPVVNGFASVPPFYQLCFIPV

[2] = A Cell Based Secondary Assay To Explore Cytotoxicity of Compounds that Sensitize Mycobacterium Tuberculosis to Beta-Lactam Antibiotics.; type: functional
[3] = biological target: T2, Luciferin 4-monooxygenase (Photinus pyralis, UniProt P08659); experiment: Counter Screen for Luciferase-based Assay Positives. [Related pubchem assays: 620, 618, 411 ]
T2 sequence (P08659 whole entry): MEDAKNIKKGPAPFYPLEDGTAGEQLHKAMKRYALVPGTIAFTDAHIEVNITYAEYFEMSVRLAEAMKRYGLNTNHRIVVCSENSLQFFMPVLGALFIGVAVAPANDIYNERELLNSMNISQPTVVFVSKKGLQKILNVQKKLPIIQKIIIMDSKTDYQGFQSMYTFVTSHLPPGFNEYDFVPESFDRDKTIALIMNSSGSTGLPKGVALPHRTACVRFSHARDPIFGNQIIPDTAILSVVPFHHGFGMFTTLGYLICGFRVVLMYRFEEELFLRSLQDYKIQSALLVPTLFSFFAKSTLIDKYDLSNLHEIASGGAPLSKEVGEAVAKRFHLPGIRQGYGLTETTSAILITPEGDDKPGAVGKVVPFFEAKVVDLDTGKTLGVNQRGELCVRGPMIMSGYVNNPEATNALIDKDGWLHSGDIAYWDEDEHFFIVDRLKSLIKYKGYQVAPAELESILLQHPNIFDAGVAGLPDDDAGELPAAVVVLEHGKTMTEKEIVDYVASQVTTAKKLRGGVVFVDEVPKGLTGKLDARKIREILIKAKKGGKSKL

HT-1080 = experiment: cytotoxicity in HT1080 fibrosarcoma cells, cell-based, fluorescence readout (AID 620); type: functional; conditions: Homo sapiens
[4] = biological target: Alkaline phosphatase, placental type (Homo sapiens, UniProt P05187); experiment: PLAP enzyme inhibitors, confirmation, biochemical, luminescence (AID 1512); type: functional
Chain of Alkaline phosphatase, placental type (P05187 whole entry): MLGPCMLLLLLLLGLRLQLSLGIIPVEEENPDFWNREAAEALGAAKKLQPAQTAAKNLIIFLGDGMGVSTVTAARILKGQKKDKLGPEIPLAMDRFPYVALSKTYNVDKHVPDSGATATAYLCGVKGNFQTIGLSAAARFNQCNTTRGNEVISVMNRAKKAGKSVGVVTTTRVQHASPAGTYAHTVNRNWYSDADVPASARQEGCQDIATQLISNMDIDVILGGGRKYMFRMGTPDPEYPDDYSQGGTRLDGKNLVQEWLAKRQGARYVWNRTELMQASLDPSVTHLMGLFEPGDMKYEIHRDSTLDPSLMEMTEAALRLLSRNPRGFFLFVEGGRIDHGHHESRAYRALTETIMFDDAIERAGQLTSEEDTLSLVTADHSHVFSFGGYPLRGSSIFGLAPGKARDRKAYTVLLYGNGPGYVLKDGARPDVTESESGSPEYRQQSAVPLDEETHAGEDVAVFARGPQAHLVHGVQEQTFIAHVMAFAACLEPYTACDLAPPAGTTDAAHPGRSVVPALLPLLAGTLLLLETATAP

[5] = biological target: Eukaryotic translation initiation factor 4H (Homo sapiens, UniProt Q15056); experiment: eIF4H inhibition in translation initiation, SAR follow-up (AID 435011); type: functional
[6] = biological target: Polyadenylate-binding protein 1 (Homo sapiens, UniProt P11940); experiment: PABP inhibition in translation initiation, SAR follow-up (AID 435018); type: functional
Chain of Polyadenylate-binding protein 1 (P11940 whole entry, the tested form may be a part): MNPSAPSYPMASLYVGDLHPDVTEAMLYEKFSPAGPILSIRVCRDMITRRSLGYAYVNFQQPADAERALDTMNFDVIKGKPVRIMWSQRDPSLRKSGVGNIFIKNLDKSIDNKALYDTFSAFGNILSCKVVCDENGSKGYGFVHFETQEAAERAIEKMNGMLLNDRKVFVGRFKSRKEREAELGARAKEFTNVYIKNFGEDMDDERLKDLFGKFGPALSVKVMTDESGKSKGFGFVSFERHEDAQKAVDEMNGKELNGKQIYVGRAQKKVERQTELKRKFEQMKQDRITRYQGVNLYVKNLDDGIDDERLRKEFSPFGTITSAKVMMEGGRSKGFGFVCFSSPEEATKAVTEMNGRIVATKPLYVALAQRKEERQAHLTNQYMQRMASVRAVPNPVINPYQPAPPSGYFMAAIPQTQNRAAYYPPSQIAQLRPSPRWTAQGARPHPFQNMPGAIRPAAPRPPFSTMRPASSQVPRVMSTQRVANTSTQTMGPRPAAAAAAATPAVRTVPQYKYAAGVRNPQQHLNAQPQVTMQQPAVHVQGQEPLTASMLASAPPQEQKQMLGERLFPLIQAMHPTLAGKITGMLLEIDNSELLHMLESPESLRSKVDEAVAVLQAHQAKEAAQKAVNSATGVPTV

[7] = biological target: NACHT, LRR and PYD domains-containing protein 3 (Homo sapiens, UniProt Q96P20); experiment: NALP3 inhibitors in yeast, dose response, luminescent (AID 488799); type: functional
Chain of NACHT, LRR and PYD domains-containing protein 3 (Q96P20 whole entry, the tested form may be a part): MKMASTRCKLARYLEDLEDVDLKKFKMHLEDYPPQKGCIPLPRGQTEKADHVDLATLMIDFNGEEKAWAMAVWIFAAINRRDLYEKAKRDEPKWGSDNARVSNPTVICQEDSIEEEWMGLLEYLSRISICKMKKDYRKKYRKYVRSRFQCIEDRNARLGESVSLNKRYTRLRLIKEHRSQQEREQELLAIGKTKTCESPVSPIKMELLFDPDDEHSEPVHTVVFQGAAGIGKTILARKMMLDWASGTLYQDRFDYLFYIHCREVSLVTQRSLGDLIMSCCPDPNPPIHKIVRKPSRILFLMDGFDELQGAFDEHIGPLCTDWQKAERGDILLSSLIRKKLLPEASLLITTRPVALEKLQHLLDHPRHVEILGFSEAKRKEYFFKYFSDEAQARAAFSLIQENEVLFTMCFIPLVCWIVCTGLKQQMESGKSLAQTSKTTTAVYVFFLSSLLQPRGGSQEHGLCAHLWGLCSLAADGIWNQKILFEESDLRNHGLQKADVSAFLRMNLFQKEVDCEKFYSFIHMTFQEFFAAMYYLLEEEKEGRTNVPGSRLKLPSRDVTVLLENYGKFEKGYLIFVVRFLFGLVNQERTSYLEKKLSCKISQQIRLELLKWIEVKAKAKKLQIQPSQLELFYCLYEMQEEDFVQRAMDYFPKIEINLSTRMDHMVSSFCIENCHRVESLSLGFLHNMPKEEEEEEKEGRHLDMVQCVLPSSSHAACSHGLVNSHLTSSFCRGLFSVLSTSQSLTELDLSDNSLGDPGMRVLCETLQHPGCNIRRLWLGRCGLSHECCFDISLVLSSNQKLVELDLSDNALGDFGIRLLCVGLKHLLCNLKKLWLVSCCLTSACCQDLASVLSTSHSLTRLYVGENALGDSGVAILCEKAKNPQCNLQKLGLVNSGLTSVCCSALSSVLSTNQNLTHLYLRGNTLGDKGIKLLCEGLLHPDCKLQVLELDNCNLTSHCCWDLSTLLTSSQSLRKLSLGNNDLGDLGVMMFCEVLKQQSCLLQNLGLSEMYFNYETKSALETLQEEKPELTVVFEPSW

[8] = biological target: DNA dC->dU-editing enzyme APOBEC-3A (Homo sapiens, UniProt P31941); experiment: Dose Response confirmation of small molecule APOBEC3A DNA Deaminase Inhibitors via a fluorescence-based single-stranded DNA deaminase assay. [Related pubchem assays (depositor defined):AID493011, AID493024]; type: functional
Chain of DNA dC->dU-editing enzyme APOBEC-3A (P31941 whole entry): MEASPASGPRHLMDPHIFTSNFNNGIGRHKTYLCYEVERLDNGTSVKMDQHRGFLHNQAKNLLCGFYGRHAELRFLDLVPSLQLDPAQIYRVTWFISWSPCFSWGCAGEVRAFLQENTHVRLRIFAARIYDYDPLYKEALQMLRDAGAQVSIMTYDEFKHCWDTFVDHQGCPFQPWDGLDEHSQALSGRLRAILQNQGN

[9] = biological target: DNA dC->dU-editing enzyme APOBEC-3G (Homo sapiens, UniProt Q9HC16); type: functional;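 further: Dose-response counterscreen measuring inhibition of APOBEC3G DNA deaminase activity, run while confirming APOBEC3A inhibitors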
Chain of DNA dC->dU-editing enzyme APOBEC-3G (Q9HC16 whole entry): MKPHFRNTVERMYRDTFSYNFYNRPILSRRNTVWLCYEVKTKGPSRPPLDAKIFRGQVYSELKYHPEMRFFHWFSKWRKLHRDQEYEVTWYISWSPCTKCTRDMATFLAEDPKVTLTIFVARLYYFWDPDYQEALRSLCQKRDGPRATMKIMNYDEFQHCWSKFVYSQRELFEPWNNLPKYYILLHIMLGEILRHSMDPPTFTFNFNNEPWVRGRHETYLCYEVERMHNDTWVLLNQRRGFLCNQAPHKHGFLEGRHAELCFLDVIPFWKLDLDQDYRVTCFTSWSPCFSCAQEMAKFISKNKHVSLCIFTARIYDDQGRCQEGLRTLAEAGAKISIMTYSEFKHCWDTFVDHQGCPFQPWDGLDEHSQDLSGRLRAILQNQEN

[10] = biological target: T2, Luciferin 4-monooxygenase; experiment: firefly luciferase enzyme inhibitors, dose response, biochemical, luminescence (AID 1891)
[11] = Luminescence Cell-Based Dose Confirmation HTS to Identify Inhibitors of Platelet Dense Granule Release. [Related pubchem assays: 1663 (Primary HTS), 1678 (Summary of Project)]; type: functional
[12] = biological target: T3, Short transient receptor potential channel 4 (Mus musculus, UniProt Q9QUQ5); experiment: TRPC4 positive allosteric modulators, dose response, cell-based, HEK293 TRPC4/mu-opioid, Fluo-4 calcium, EC20 DAMGO (AID 434941); type: functional
T3 sequence (Q9QUQ5 whole entry): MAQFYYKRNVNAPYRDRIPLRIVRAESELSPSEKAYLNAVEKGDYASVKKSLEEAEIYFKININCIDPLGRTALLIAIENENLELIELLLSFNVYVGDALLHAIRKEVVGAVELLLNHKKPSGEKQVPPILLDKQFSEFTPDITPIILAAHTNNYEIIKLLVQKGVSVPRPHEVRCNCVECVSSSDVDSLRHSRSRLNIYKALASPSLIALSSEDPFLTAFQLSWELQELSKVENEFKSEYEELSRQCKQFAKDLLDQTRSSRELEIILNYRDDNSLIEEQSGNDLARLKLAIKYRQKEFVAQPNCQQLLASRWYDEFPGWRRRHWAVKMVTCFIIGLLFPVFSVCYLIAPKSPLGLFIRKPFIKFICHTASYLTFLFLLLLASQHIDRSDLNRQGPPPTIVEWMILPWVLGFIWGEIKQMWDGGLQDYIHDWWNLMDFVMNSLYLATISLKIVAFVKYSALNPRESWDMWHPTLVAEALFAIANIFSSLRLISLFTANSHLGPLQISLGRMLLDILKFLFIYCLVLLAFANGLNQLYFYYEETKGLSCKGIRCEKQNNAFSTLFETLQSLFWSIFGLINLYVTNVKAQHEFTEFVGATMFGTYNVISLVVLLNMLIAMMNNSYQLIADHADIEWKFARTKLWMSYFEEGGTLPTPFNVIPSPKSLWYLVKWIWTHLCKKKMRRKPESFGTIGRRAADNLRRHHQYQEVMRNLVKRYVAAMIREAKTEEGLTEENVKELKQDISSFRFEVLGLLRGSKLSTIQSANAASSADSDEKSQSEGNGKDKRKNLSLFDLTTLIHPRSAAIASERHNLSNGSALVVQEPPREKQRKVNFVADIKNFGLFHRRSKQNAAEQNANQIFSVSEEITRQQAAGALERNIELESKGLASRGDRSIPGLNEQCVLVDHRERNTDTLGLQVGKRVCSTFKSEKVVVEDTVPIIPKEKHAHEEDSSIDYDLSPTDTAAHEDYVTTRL

Chain of Neurotensin receptor type 1 (P30989 whole entry): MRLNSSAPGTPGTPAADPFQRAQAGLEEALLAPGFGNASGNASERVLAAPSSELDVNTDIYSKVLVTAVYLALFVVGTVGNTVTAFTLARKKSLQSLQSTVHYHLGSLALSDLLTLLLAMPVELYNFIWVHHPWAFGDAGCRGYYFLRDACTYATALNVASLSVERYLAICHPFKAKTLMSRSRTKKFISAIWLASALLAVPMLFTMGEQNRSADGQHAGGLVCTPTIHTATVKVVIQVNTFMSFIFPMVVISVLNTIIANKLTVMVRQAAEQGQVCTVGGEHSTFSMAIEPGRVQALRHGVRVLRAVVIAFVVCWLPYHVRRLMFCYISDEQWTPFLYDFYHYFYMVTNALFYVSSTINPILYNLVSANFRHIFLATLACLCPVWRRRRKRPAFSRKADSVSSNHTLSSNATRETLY

SMILES: Cc1cccc(N2C(=O)NC(=O)/C(=C\c3cnn(-c4ccccc4)c3)C2=O)c1
- EC50 [1]: 13 µM (active)
- AC50 (Cytochrome P450 2C19): 39.8 µM (inconclusive)
- AC50 (Cytochrome P450 1A2): 25.1 µM (inconclusive)
- AC50 (Cytochrome P450 2C9): 39.8 µM (inconclusive)

SMILES: Cc1ccc(N=C(S)Nc2ncccc2C)c(C)c1
- CC50 [2]: > 40 µM (active)

SMILES: OCCCn1c(C2CCCN2c2nc(-c3ccc(Cl)cc3)cs2)nc2cc(Cl)c(Cl)cc21 (centres undefined)
- CC50 [2]: > 40 µM (active)

SMILES: Cc1ccc(OCc2nc(-c3ccccn3)no2)c(Br)c1
- EC50 [3]: < 0.2 µM (active)
- EC50 (HT-1080): > 50 µM (not active)

SMILES: CCN(CC(=O)Nc1cccc(F)c1)Cc1nc(O)c2ccccc2n1
- IC50 [4]: > 100 µM (inactive)

SMILES: COc1cc([N+](=O)[O-])ccc1NC(=O)COC(=O)c1ccc(N2CCCC2=O)cc1
- IC50 [5]: > 100 µM (inactive)
- IC50 [6]: > 100 µM (inactive)

SMILES: CCC1Nc2ncnc(N3CCN(c4ccccn4)CC3)c2N(Cc2ccc(Cl)cc2)C1=O (centres undefined)
- IC50 [7]: 3.16 µM (active)

SMILES: C=CCNC1=N[C@@H](c2ccccc2)C(C(=O)OC)=C(C)N1CCOC
- IC50 [8]: 4.03 µM (active)
- IC50 [9]: 6.15 µM (active)

SMILES: C1CCN(c2nc(N3CCCC3)nc(N3CCNCC3)n2)C1
- EC50 [10]: > 112 µM (not active)
- EC50 [11]: > 112 µM (not active)
- EC50 [12]: 2.66 µM (active)

SMILES: O=C(Nc1ccc(Br)cc1)C1CCCN1C(=O)Oc1ccccc1 (centres undefined)
- IC50 [5]: > 100 µM (inactive)
- IC50 [6]: > 100 µM (inactive)
